1 substance from patent US7754483B2, “Systems and methods for selection and maintenance of homogeneous and pluripotent human embryonic stem cells” (The Penn State Research Foundation, priority 2005, dated 2010) can be followed below.

For test [1], the system named is hES cells. Put plainly: Apoptosis detection by TUNEL assay. The format is cell-based, human. To be noted: Example 22, hESC colonies. Here is the method: Ceramide-induced apoptosis is assessed and visualized by TUNEL assay using the In Situ Cell Death Detection Kit, TMR Red (Roche Applied Bioscience). A TUNEL (Terminal deoxynucleotidyl Transferase Biotin-dUTP Nick End Labeling) assay measures and quantitates apoptosis by labeling DNA strand breaks in individual cells and detecting them by fluorescence microscopy. Human ES cells are cultured on glass cover-slips coated with 0.1% gelatin and mouse feeder cells. When the majority of the colonies reached the size of 0.5-0.7 mm (usually by day 5 of the culture), cells are treated with liposomal C6-ceramide (3 micromolar final) or ghost (no ceramide) for 12 hr. Cells are incubated for 12 hr because cells undergoing apoptosis are still attached to the cover-slip, making observation convenient. After 12 hr, cells become round and detached. At the end of the treatment period, cells are fixed with 4% formaldehyde (Tousimis) in PBS. TUNEL assay is performed using the In Situ Cell Death Detection Kit, TMR Red (Roche Applied Bioscience) following the manufacturer's instructions. Briefly, cells are permeabilized by incubating in 0.1% PBST for 2 min on ice. TUNEL reaction mixture is prepared freshly by mixing 50 microliters of enzyme solution (terminal deoxynucleotidyl transferase) with 450 microliters label solution (nucleotide mixture). […]

Another test relates to hES cells, H1 or H9. Kind of test: Liposomal ceramide treatment of hES cell colonies co-cultured with mouse feeder cells. The format is cell-based.
In test [2] the test system is hES cells maintained in feeder cells-free culture system. Put plainly: Liposomal ceramide treatment of hES cells in feeder cell-free culture (GFR-MATRIGEL). It is filed as cell-based, human. To be noted: five micromolar. From the text:
NIH-registered hES cell lines, H1 (WA-01; 46XY) and H9 (WA-09; 46XX), are maintained on mouse embryonic fibroblasts (feeder cells) as recommended by the WiCell Research Institute (Madison, Wis.). Mouse feeder cells are irradiated (7500 Rad) and plated (2×10^4 cells/cm^2) on 6-well plates pre-coated with 0.1% gelatin. Feeder cells are allowed to attach and grow overnight prior to hES cell co-culture. Human ES cells are maintained with Dulbecco's Modified Eagle Medium/F12 (Gibco) supplemented with 20% KnockOut serum replacement (Gibco), 1% nonessential amino acids (Gibco), 2 mM GlutaMAX-1 (Gibco), 4 ng/ml basic human FGF (Invitrogen) and 0.1 mM beta-mercaptoethanol (Sigma). Cells are manually passaged following 10 min of collagenase IV incubation (1 mg/ml) at 1:5-1:10 split ratio every 5-7 days. For feeder cell-free culture, hES cells are plated and cultured on 6-well dishes coated with growth factor reduced (GFR)-MATRIGEL, diluted 1:24 in DMEM/F12. Human ES cells co-cultured with feeder cells are treated with collagenase IV for 10 min, collected manually and plated in a 1:3-1:5 split ratio (day=0). Cells are maintained with normal hES cell culture medium until treatment with ceramide (day=2). […]
Light microscopy images of cells from 10 random fields are recorded using a Nikon TS-100 phase-contrast microscope and a Nikon CoolPix 5000 digital camera. […]

Test [3] deals with hES cells. Put plainly: In vitro differentiation of hES cells. It is filed as cell-based, human. As to conditions: after elimination of ceramide-sensitive cells. The source says:
Once separated from feeder cells and serum, hES cells typically spontaneously differentiate into progenitor cells and such cultures include ectoderm, mesoderm and endoderm progenitor cells. Similar to in vivo embryogenesis, further differentiation of these progenitor cells results in formation of terminally differentiated cell types illustratively including neurons, cardiomyocytes, endothelial, and pancreatic β-cells. The ability of hES cells to form all three embryonic lineages is one of the main criteria to determine their pluripotency. Early lineage differentiation is assessed using lineage specific markers. Exemplary lineage specific markers include nestin for ectodermal; α-fetoprotein for endodermal; and brachyury for mesodermal. Later stages of differentiation of these progenitor cells into specialized cells are assessed by assay of markers for more specialized cells representing three lineages, such as serotonergic neurons, insulin-positive cells, and cardiomyocytes.
To assess in vitro differentiation, hES cells are isolated and transferred into non-coated culture plates where hES cells form embryoid bodies (EBs). For neuronal differentiation, these EBs are treated with a neurobasal medium (insulin-transferrin-selenium) to induce neuroprogenitor cell formation for seven days. Then, bFGF ([…]) is added to medium for another seven days. […]

Experimental for hES cells, H1 or H9: Mouse feeder cells are irradiated (7500 Rad) and plated (2×10^4 cells/cm^2) on 6-well plates pre-coated with 0.1% gelatin. Feeder cells are allowed to attach and grow overnight prior to hES cell co-culture. Human ES cells are maintained with Dulbecco's Modified Eagle Medium/F12 (Gibco) supplemented with 20% KnockOut serum replacement (Gibco), 1% nonessential amino acids (Gibco), 2 mM GlutaMAX-1 (Gibco), 4 ng/ml basic human FGF (Invitrogen) and 0.1 mM beta-mercaptoethanol (Sigma). Cells are manually passaged following 10 min of collagenase IV incubation (1 mg/ml) at 1:5-1:10 split ratio every 5-7 days. […] Human ES cells co-cultured with feeder cells are treated with collagenase IV for 10 min, collected manually and plated in a 1:3-1:5 split ratio (day=0). Cells are maintained with normal hES cell culture medium until treatment with ceramide (day=2).
Increasing concentrations, 1, 3, 5, 10, 15 and 30 micromolar, of liposomal C6-ceramide are added to hES cell culture medium after a majority of the colonies had reached a size between 0.5-0.7 mm in diameter (day 5-6 of the culture). Relative volumes of “ghost liposome” containing no ceramide are used as a control. These ghost liposomes contained an equal mass of total lipids as ceramide formulations. […]

For ceramide, the “TUNEL: apoptosis after ceramide-conditioning” value with hES cells [1] is given as “hESCs on the periphery of the colonies are, indeed, undergoing apoptosis”. In addition, the “effect on peripheral cells of H9 hESC colonies” value in the test on hES cells, H1 or H9 (5 micromolar, 8 hrs, H9 (WA09), with MEF) is on record as “eliminates cells located on the periphery of the hESC colonies”. The “growth of central hESCs after addition of ceramide” value in the test with hES cells, H1 or H9 (Example 22) is “continue their normal growth”. Moreover, the “effect on differentiation of hESCs without feeder cells” value in test [2] was “inhibits differentiation and allows maintenance of undifferentiated stem cell growth”. The “differentiation capability of ceramide-selected hES cells” value in the test with hES cells [3] is given as “capable of differentiated into ectoderm, mesoderm or endoderm progenitor cells”.
